# Test results taken from ChEMBL document CHEMBL1122067, “Species- or isozyme-specific enzyme inhibitors. 4. Design of a two-site inhibitor of adenylate kinase with isozyme selectivity” (J Med Chem, 1982).
# Key:
# [1] = Concentration for half-maximal velocity for adenylate kinase (AK) was determined
# [2] = Inhibitory constant of rat adenylate kinase (AK) isozymes expressed as relative maximal velocity
# [3] = Inhibitory constant of rat adenylate kinase(AK) isozymes and maximal velocity was determined
# [4] = tested on: Nc1ncnc2c1ncn2[C@@H]1O[C@H](COP(=O)(O)O)[C@@H](O)[C@H]1O; experiment: (§1) Concentration for half-maximal velocity for adenylate kinase (AK II) was determined
# [5] = tested on: CCCCNc1ncnc2c1ncn2C1O[C@H](COP(=O)(O)OP(=O)(O)OP(=O)(O)O)[C@@H](O)[C@H]1O; experiment: as §1
# [6] = tested on: O=C(CI)NCCCCCNc1ncnc2c1ncn2C1O[C@H](COP(=O)(O)OP(=O)(O)OP(=O)(O)O)[C@@H](O)[C@H]1O; experiment: as §1
# [7] = tested on: Nc1ncnc2c1ncn2[C@@H]1O[C@H](COP(=O)(O)O)[C@@H](O)[C@H]1O; experiment: (§2) Inhibitory constant of rat adenylate kinase (AK II) isozymes expressed as relative maximal velocity
# [8] = tested on: CCSc1nc2c(N)ncnc2n1[C@@H]1O[C@H](COP(=O)(O)O)[C@@H](O)[C@H]1O; experiment: as §2
# [9] = tested on: CCCCNc1ncnc2c1ncn2C1O[C@H](COP(=O)(O)OP(=O)(O)OP(=O)(O)O)[C@@H](O)[C@H]1O; experiment: as §2
# [10] = tested on: CC(=O)NCCCCCCCCNc1ncnc2c1ncn2C1O[C@H](COP(=O)(O)O)[C@@H](O)[C@H]1O; experiment: as §2
# [11] = tested on: O=C(CI)NCCCCCNc1ncnc2c1ncn2C1O[C@H](COP(=O)(O)OP(=O)(O)OP(=O)(O)O)[C@@H](O)[C@H]1O; experiment: as §2
# [12] = tested on: CC(=O)NCCNc1ncnc2c1ncn2C1O[C@H](COP(=O)(O)O)[C@@H](O)[C@H]1O; experiment: as §2
Molecule,Km [1] [µM],Vmax [2] [%],other results
Nc1ncnc2c1ncn2[C@@H]1O[C@H](COP(=O)(O)OP(=O)(O)OP(=O)(O)O)[C@@H](O)[C@H]1O,570,100,
CCCCNc1ncnc2c1ncn2C1O[C@H](COP(=O)(O)OP(=O)(O)OP(=O)(O)O)[C@@H](O)[C@H]1O (stereo partly specified),2800,86,
Nc1ncnc2c1nc(Sc1ccccc1)n2[C@@H]1O[C@H](COP(=O)(O)OP(=O)(O)OP(=O)(O)O)[C@@H](O)[C@H]1O,,0,
CC(=O)NCCNc1ncnc2c1ncn2C1O[C@H](COP(=O)(O)O)[C@@H](O)[C@H]1O (stereo partly specified),,,Vmax [3]: 0%
CCCCN(CCCC)c1ncnc2c1ncn2C1O[C@H](COP(=O)(O)OP(=O)(O)OP(=O)(O)O)[C@@H](O)[C@H]1O (stereo partly specified),,0,
CCCCSc1ncnc2c1ncn2C1O[C@H](COP(=O)(O)OP(=O)(O)OP(=O)(O)O)[C@@H](O)[C@H]1O (stereo partly specified),4000,192,
O=C(CI)NCCCCCNc1ncnc2c1ncn2C1O[C@H](COP(=O)(O)OP(=O)(O)OP(=O)(O)O)[C@@H](O)[C@H]1O (stereo partly specified),,0,
CC(=O)NCCCCCCCCNc1ncnc2c1ncn2C1O[C@H](COP(=O)(O)O)[C@@H](O)[C@H]1O (stereo partly specified),,0,
CCCSc1nc2c(N)ncnc2n1[C@@H]1O[C@H](COP(=O)(O)OP(=O)(O)OP(=O)(O)O)[C@@H](O)[C@H]1O,,0,
"Adenylate kinase 2, mitochondrial (Rattus norvegicus) (from UniProt P29410)",,,Km [4]: 90 µM; Km [5]: 1400 µM; Km [6]: 1000 µM; Vmax [7]: 100%; Vmax [8]: 0%; Vmax [9]: 13%; Vmax [10]: 0%; Vmax [11]: 21%; Vmax [12]: 0%
